Measurements from patent US11084790B2, “Insoluble complex or solvate thereof, pharmaceutical composition and use thereof” (Fruithy Holdings Limited, priority 2017, dated 2021).

Experiment: Test on the solubility in a simulated body fluid
Format: physicochemical
Conditions: for Compound concentration: DTTA / Compound concentration: Ropivacaine: 0.01 M PBS pH 7.4, 37° C.
Procedure: Test on the Solubility in a Simulated Body Fluid
The concentration of the drug dissolved in the PBS buffered solution was determined with an HPLC-a method.

Compound | Saturated solubility (simulated body fluid, 0.01 M PBS at pH 7.4) | Compound concentration: DTTA (5 min) | Compound concentration: Ropivacaine (5 min) | Compound concentration: DTTA (15 min) | Compound concentration: Ropivacaine (15 min) | Compound concentration: DTTA (30 min) | Compound concentration: Ropivacaine (30 min) | Compound concentration: DTTA (1 h) | Compound concentration: Ropivacaine (1 h) | Compound concentration: DTTA (2 h) | Compound concentration: Ropivacaine (2 h) | Compound concentration: DTTA (6 h) | Compound concentration: Ropivacaine (6 h) | Compound concentration: DTTA (24 h) | Compound concentration: Ropivacaine (24 h)
CCCCN1CCCCC1C(=O)Nc1c(C)cccc1C.CCCCN1CCCCC1C(=O)Nc1c(C)cccc1C.O=C(O)c1cc2ccccc2c(Cc2c(O)c(C(=O)O)cc3ccccc23)c1O [bis(bupivacaine) pamoate] | 300 µM |  |  |  |  |  |  |  |  |  |  |  |  |  | 
CCCN1CCCC[C@H]1C(=O)Nc1c(C)cccc1C.CCCN1CCCC[C@H]1C(=O)Nc1c(C)cccc1C.Cc1ccc(C(=O)OC(C(=O)O)C(OC(=O)c2ccc(C)cc2)C(=O)O)cc1 (stereo not drawn) [Preparation Example 6, bis(ropivacaine) di-p-toluoyl tartarate] |  | 13380.8 µM | 26058.5 µM | 15017.3 µM | 29888.8 µM | 18586.4 µM | 38657.6 µM | 19990.1 µM | 41983.6 µM | 19679 µM | 41011.1 µM | 19617.2 µM | 40777.8 µM | 22843.9 µM | 47445.3 µM
